Measurements taken from PMC10819771 (Pharmaceuticals, 2023).

Columns and labels:
[1] = system: HeLa; test: MTT antiproliferative assay, HeLa; format: cell-based, human; conditions: for IC50: Homo sapiens, HeLa, MTT, 72 h, cervical cancer cells, read-out: IC50 Values (μM) ± SEM HeLa; for Selectivity Index HEK293/HeLa: IC50 HEK293 / IC50 HeLa
Description: (§1) The growth-inhibitory effects of the compounds were determined by MTT (3-(4,5-dimethylthiazol-2-yl)-2,5-diphenyltetrazolium bromide) assay on selected cell lines, including HeLa and SiHa (cervical cancers), MDA-MB-231 and MCF-7 (breast cancers), and A2780 ovarian cancer cells. All cell lines were purchased from the European Collection of Cell Cultures (Salisbury, UK) except SiHa, which was obtained from the American Tissue Culture Collection (Manassas, VA, USA). The cells were kept in minimum essential medium supplemented with 10% fetal bovine serum, 1% non-essential amino acids, and 1% penicillin-streptomycin-amphotericin-B at 37 °C in a humidified atmosphere containing 5% CO2. Media and supplements were obtained from Lonza Group Ltd., (Basel, Switzerland). Cancer cells were seeded onto 96-well plates (5000 cells/well), after an overnight incubation the test compounds were added in six concentrations (0.1, 0.3, 1.0, 3.0, 10.0, 30.0 µM) and incubated for 72 h under cell-culture condition. After the incubation, 20 μL of 5 mg/mL MTT solution was added to each well and incubated for a further 4 h. The medium was removed, and the precipitated formazan crystals were dissolved in DMSO for 30 min under shaking at 37 °C. The absorbance was measured at 545 nm with a microplate reader. Untreated cells were included as controls. Calculations were performed by means of the GraphPad Prism 5.01 software (GraphPad Software Inc., San Diego, CA, USA). At least two independent determinations were performed with 5 parallel wells for each condition.

[2] = system: FBCL-2T; test: FRET-melting, FBCL-2T; format: binding; conditions: ligand 2 μM, DNA 0.2 μM, 10 mM KCl, 90 mM LiCl, pH 7.2
Description: (§2) FRET-melting experiments were conducted on a Stratagene MX3005P (Thermo Fisher Scientific, Illkirch-Graffenstaden, France) real-time PCR equipment in 96-well plates on the DNA sequences reported in Table 4. Experiments were performed in 10 mM lithium cacodylate buffer (pH 7.2) and either 10 mM KCl and 90 mM LiCl (FK-RAST, FBCL-2T, F21T, and FdxT) or 1 mM KCl and 99 mM LiCl (Fc-MYCT) concentrations, depending on the Tm of the G4s alone. The DNA concentration was 0.2 µM. […] Data are presented as an average of three independent measurements, each conducted in duplicate conditions (λexc = 492 nm, λem = 516 nm, T interval = 25–95 °C, ramp: 25 °C for 5 min, then 1 °C/min, measurements every 1 °C, 8× magnification of the fluorescence signal).

[3] = system: A2780; test: MTT antiproliferative assay, A2780; format: cell-based, human; conditions: for IC50: Homo sapiens, A2780, MTT, 72 h, ovarian cancer cells, read-out: IC50 Values (μM) ± SEM A2780; for Selectivity Index HEK293/A2780: IC50 HEK293 / IC50 A2780
Description: as §1

[4] = system: HEK293; test: MTT proliferation test on normal cells, HEK293; format: cell-based; conditions: Homo sapiens, normal epithelial cells, cytotoxicity, read-out: IC50 Values (μM) ± SEM HEK293
Description: The MTT proliferation test on the epithelial cell line HEK293 was performed as pre-viously described. The 50% inhibiting concentrations (IC50) were determined by linear regression analysis.

[5] = system: telomerase; test: Telomerase activity (TRAP assay) in MCF-7 cell lysates; format: biochemical, human; conditions: MCF-7 cell lysate; for telomerase activity compared to control: 5 µM compound
Description: Telomerase activity was assessed using the TRAP assay kit (TRAPeze® RT telomerase detection kit, Chemicon, Millipore Sigma S7700, Merck KGaA, Darmstadt, Germany) according to manufacturer’s instructions with some modifications. Briefly, […] in CHAPS lysis buffer and proteins were extracted. Protein extracts and various concentrations of compounds (0 to 5 µM) were used to extend a synthetic telomeric DNA using an enzymatic reaction (30 °C during 20 min), followed by a quantification of telomeric DNA using a telomeric PCR amplification: 95 °C for 3 min, 2 cycles of 95 °C for 20 s, and 49 °C for 20 s, followed by 30 cycles 95 °C for 20 s and 60 °C for 20 s with signal acquisition) in a Stratagene Mx3005P system (Agilent, Les Ulis, France) using specific telomeric PCR quantitative primers. Each sample was measured in technical duplicate with control DNA. For each drug and each dilution, we used biological triplicate of cell lysates.

[6] = system: K562; test: MTS cell proliferation assay, K562; format: cell-based, human; conditions: for IC50: Homo sapiens, K562, 72 h, MTS, 3-day incubation, leukemia cells, read-out: IC50 Values (μM) ± SEM K562; for Selectivity Index HEK293/K562: IC50 HEK293 / IC50 K562
Description: The human leukemic cell line K562 was grown in RPMI 1640 medium (Life Technology-Invitrogen by Thermo Fisher Scientific, Saint-Aubin, France) supplemented with 10% fetal calf serum (FCS), antibiotics (100 U/mL penicillin, 100 µg/mL streptomycin), and L-glutamine, (Eurobio, Les Ulis, France) at 37 °C, 5% CO2 in air. The MTS cell proliferation assay (Promega, Charbonnières-les-Bains, France) is a colorimetric assay system, which measures the transformation of a tetrazolium component (MTS) into formazan produced by the mitochondria of viable cells. Cells were washed twice in PBS (Phosphate Buffer Saline) and plated in quadruplicate into microtiter-plate wells in 100 μL culture media with or without our various compounds at increasing concentrations (0, 1, 5, 10, 20, and 50 μM) for 1, 2, and 3 days. After 3 h of incubation at 37 °C with 20 μL MTS/well, the plates were read using an ELISA microplate reader (Thermo, Electrocorporation, Waltham, MA, USA) at 490 nm. The amount of color produced was directly proportional to the number of viable cells. The results are expressed as the concentrations inhibiting cell growth by 50% after a 3-day incubation period. The 50% cytotoxic concentrations (CC50) were determined by linear regression analysis, expressed in μM ± SD (Microsoft Excel).

[7] = system: FdxT; test: FRET-melting, duplex control FdxT; format: binding; conditions: ligand 2 μM, DNA 0.2 μM, 10 mM KCl, 90 mM LiCl, pH 7.2, hairpin duplex
Description: as §2

[8] = system: FK-RAST; test: FRET-melting, FK-RAST; format: binding; conditions: ligand 2 μM, DNA 0.2 μM, 10 mM KCl, 90 mM LiCl, pH 7.2
Description: as §2

[9] = system: MDA-MB-231; test: MTT antiproliferative assay, MDA-MB-231; format: cell-based, human; conditions: for IC50: Homo sapiens, MDA-MB-231, 72 h, MTT, 72 h, breast cancer cells, read-out: IC50 Values (μM) ± SEM MDA-MB-231; for Selectivity Index HEK293/MDA-MB-231: IC50 HEK293 / IC50 MDA-MB-231
Description: as §1

[10] = system: SiHa; test: MTT antiproliferative assay, SiHa; format: cell-based, human; conditions: for IC50: Homo sapiens, SiHa, MTT, 72 h, cervical cancer cells, read-out: IC50 Values (μM) ± SEM SiHa; for Selectivity Index HEK293/SiHa: IC50 HEK293 / IC50 SiHa
Description: as §1

[11] = system: MCF-7; test: MTT antiproliferative assay, MCF-7; format: cell-based, human; conditions: for IC50: Homo sapiens, MCF7, 72 h, MTT, 72 h, breast cancer cells, read-out: IC50 Values (μM) ± SEM MCF-7; for Selectivity Index HEK293/MCF-7: IC50 HEK293 / IC50 MCF-7
Description: as §1

[12] = system: Fc-MYCT; test: FRET-melting, Fc-MYCT; format: binding; conditions: ligand 2 μM, DNA 0.2 μM, K+ conditions, pH 7.2
Description: as §2

[13] = system: human telomeric sequence F21T; test: FRET-melting, F21T; format: binding; conditions: ligand 2 μM, DNA 0.2 μM, 10 mM KCl, 90 mM LiCl, pH 7.2
Description: as §2

[14] = system: FdxT (DNA, hairpin, hexaethylene glycol linker between 10 and 11) TATAGCTATATATAGCTATA; test: FRET melting; conditions: 10 mM K+, 90 mM Li+; 10 mM lithium cacodylate pH 7.2; 0.2 µM DNA, 2 µM compound

SMILES: CN(C)CCCNCc1ccc(-c2nc(-c3ccc(CNCCCN(C)C)cc3)c3ccc(-c4ccccc4)cc3n2)cc1 [Compound 12f, 2,4-bis{4-[(3-dimethylaminopropyl)aminomethyl]phenyl}-7-phenylquinazoline]
- IC50 [1]: 1.51 ± 0.09 µM
- Selectivity Index HEK293/HeLa [1]: >19.9
- ΔT1/2 (°C) FBCL-2T [2]: 12.6 ± 0.6 °C
- IC50 [3]: 0.79 ± 0.19 µM
- Selectivity Index HEK293/A2780 [3]: >38.0
- IC50 [4]: > 30 µM
- telomerase activity compared to control [5]: reduced drastically
- IC50 [6]: 14 ± 0.3 µM
- Selectivity Index HEK293/K562 [6]: >2.14
- ΔT1/2 (°C) FdxT [7]: 2.4 ± 0.1 °C
- ΔT1/2 (°C) FK-RAST [8]: 20.1 ± 0.3 °C
- IC50 [9]: 0.55 ± 0.01 µM
- Selectivity Index HEK293/MDA-MB-231 [9]: >54.5
- IC50 [10]: 0.75 ± 0.1 µM
- Selectivity Index HEK293/SiHa [10]: >40.0
- IC50 [11]: 0.58 ± 0.08 µM
- Selectivity Index HEK293/MCF-7 [11]: >51.7
- ΔT1/2 (°C) Fc-MYCT [12]: 9.1 ± 1.4 °C

SMILES: CN1CCN(CCCNCc2ccc(-c3nc(-c4ccc(CNCCCN5CCN(C)CC5)cc4)c4ccc(-c5ccccc5)cc4n3)cc2)CC1 [Compound 12i]
- IC50 [1]: 1.15 ± 0.36 µM
- Selectivity Index HEK293/HeLa [1]: >26.1
- ΔT1/2 (°C) FBCL-2T [2]: 14.8 ± 0.7 °C
- IC50 [3]: 1.14 ± 0.16 µM
- Selectivity Index HEK293/A2780 [3]: >26.3
- ΔT1/2 (°C) F21T [13]: 18.6 ± 0.2 °C
- IC50 [4]: > 30 µM
- telomerase activity compared to control [5]: reduced drastically
- concentration from which MCF-7 telomerase activity is decreased ([5]; 0 to 5 µM tested): 5 µM
- IC50 [6]: 23 ± 0.5 µM
- Selectivity Index HEK293/K562 [6]: >1.30
- ΔT1/2 (°C) FdxT [7]: 1.9 ± 0.1 °C
- ΔT1/2 (°C) FK-RAST [8]: 20.2 ± 0.5 °C
- IC50 [9]: 0.52 ± 0.02 µM
- Selectivity Index HEK293/MDA-MB-231 [9]: >57.7
- IC50 [10]: 0.92 ± 0.24 µM
- Selectivity Index HEK293/SiHa [10]: >32.6
- IC50 [11]: 0.67 ± 0.31 µM
- Selectivity Index HEK293/MCF-7 [11]: >44.8
- ΔT1/2 (°C) Fc-MYCT [12]: 12.5 ± 0.7 °C

SMILES: CN1CCN(CCCNCc2ccc(-c3cc(-c4ccc(CNCCCN5CCN(C)CC5)cc4)c4cc(-c5ccccc5)ccc4n3)cc2)CC1
- ΔT1/2 [14]: 0.1 ± 0.2 °C
